This passage reports IC50 results from patent publication US20240083892A1 (BISICHEM CO., LTD., priority 2021, published 2024).

Experiment [1] addresses T1, RIPK1 (Homo sapiens, UniProt Q13546).
T1 construct: endogenous in cells; host or cells: HT-29 (KCLB 30038)
T1 sequence (Q13546 1-671): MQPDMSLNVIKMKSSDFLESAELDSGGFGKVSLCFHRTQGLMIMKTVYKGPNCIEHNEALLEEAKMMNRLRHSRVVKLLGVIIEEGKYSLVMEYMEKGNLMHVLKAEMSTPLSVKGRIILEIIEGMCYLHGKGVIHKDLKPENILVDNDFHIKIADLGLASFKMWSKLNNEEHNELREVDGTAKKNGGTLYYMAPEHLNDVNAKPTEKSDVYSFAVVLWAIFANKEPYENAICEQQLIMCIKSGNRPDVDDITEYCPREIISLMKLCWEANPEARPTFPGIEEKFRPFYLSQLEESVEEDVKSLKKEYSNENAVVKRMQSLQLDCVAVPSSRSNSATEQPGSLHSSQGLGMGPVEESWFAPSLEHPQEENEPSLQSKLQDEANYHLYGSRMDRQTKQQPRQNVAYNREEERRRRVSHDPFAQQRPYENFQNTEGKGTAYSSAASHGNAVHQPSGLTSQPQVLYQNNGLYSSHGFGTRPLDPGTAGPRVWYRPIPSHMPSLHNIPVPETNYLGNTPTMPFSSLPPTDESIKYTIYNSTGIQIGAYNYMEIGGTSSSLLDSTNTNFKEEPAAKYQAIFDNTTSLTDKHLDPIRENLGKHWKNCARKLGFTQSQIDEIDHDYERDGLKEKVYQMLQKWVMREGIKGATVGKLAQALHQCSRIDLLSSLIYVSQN
Put plainly: Cell-based necroptosis assay for RIPK1 activity (cell viability by CCK-8). Conditions: HT-29 cells; Z-VAD-FMK 20 μM, human TNFα 10 ng/ml, SM-164 100 nM; 24 h; read-out: Cell-base RIPK1 activity: Necroptosis. As to the method:
(§1) Human colon carcinoma cell HT-29 (KCLB 30038), BV2 mouse microglial cell (cell was a kind gift from Dr. Nak-Yun Sung, Senior researcher at Korea Prime Pharmacy CO., LTD.) and human microglial cell HMC3 (ATCC® CRL-3304™). HT-29 cell was grown in Roswell Park Memorial Institute (RPMI) 1640, BV2 cell was grown in Dulbecco's Modified Eagle's Medium (DMEM) and HMC3 cell was grown in Minimum Essential Media Eagle (MEM) supplemented with 10% fetal bovine serum and 1% mixture of penicillin and streptomycin (Gibco). Cells were maintained at 37° C. in a humidified 5% CO2 atmosphere.
To measure the activity of RIPK1 inhibitor in necroptotic cells, HT-29 cells were treated by control DMSO, human TNFα (Peprotech, Rocky Hill, USA), SM-164 (Biovision, California, USA) and a pan-caspase inhibitor Z-VAD-FMK (Invivogen, San Diego, USA). Cells were pretreated with Z-VAD-FMK 20 μM. After 30 min, human TNFα 10 ng/ml, SM-164 100 nM and RIPK1 Inhibitor (0.0001, 0.001, 0.01, 0.02, 0.05, 0.1, 1, 10 uM) were treated for 24 h. Cell viability was measured by Cell Counting Kit 8 (CCK-8) (Dong-in, Seoul, Korea).

Experiment [2] concerns the target T1, RIPK1. Put plainly: Immunoblotting of TNFα induced phospho-RIPK1 (ser 166) levels. Conditions: HMC3 cells; Z-VAD-FMK, human TNFα 20 ng/ml, SM-164 100 nM; 7 h, serum free media; read-out: Cell-base RIPK1 activity: phspho-RIPK1 (Ser166). It counts as cell-based. As to the method:
as §1
Biological activity of the compounds of RIPK1 inhibitor was determined by measuring their ability to inhibitor TNFα induced phospho-RIPK1 (ser 166) levels, phospho-RIPK3 levels, phospho-MLKL levels in HMC3 cells. Cells were pretreated with Z-VAD-FMK […]. After 30 min, human TNFα 20 ng/ml, SM-164 100 nM and RIPK1 inhibitor (0.1, 1, 10 nM) were treated for 7 h under serum free media. Cells were lysed with cold lysis buffer containing 25 mM HEPES pH 7.6, […] NaCl, 1% NP40, 1% sodium deoxycholate, 0.1% SDS, and protease inhibitor mixture (Bimake, Houston, USA) using sonicators. The cells were centrifuged at 15,000 rpm, 4° C. for 5 min. After protein concentration of the lysates (supernatants) was quantified using BCA assay (Thermo Fisher Scientific, Waltham, USA), lysates were mixed with LDS sample buffer and heating at […] for 10 min. (Invitrogen, California, USA). […] The membranes are placed in an image analyzer (Imagequant, LAS 500, GE Healthcare), connected to a computer which allows the image generation (software Image reader LAS 500).

SMILES strings stand for the structures.

Turning to `CN1C(=O)[C@@H](NC(=O)n2cc(Cc3cccc(F)c3)cn2)COc2ccc(C(=O)N3CCCCC3)cc21` [Example 1, (S)-4-(3-fluorobenzyl)-N-(5-methyl-4-oxo-7-(piperidine-1-carbonyl)-2,3,4,5-tetrahydrobenzo[b][1,4]oxazepin-3-yl)-1H-pyrazole-1-carboxamide], the IC50 in experiment [1] and in experiment [2] was 10 to 50 nM throughout.

For `CN1C(=O)[C@@H](NC(=O)n2cc(Cc3cccc(F)c3)cn2)COc2ccc(C(=O)N3CCC(C)(C)CC3)cc21` [Example 2, (S)—N-(7-(4,4-dimethylpiperidine-1-carbonyl)-5-methyl-4-oxo-2,3,4,5-tetrahydrobenzo[b][1,4]oxazepin-3-yl)-4-(3-fluorobenzyl)-1H-pyrazole-1-carboxamide], the IC50 in experiment [1] and in experiment [2] was under 10 nM throughout. In the case of `CN1C(=O)[C@@H](NC(=O)n2cc(Cc3cccc(F)c3)cn2)COc2ccc(C(=O)N3CCC(F)(F)CC3)cc21` [Example 3], the IC50 in experiment [1] and in experiment [2] was 10 to 50 nM each time.

For the compound `CN1C(=O)[C@@H](NC(=O)n2cc(Cc3cccc(F)c3)cn2)COc2ccc(C(=O)N3CCC(O)CC3)cc21` [Example 4, (S)-4-(3-fluorobenzyl)-N-(7-(4-hydroxypiperidine-1-carbonyl)-5-methyl-4-oxo-2,3,4,5-tetrahydrobenzo[b][1,4]oxazepin-3-yl)-1H-pyrazole-1-carboxamide], the IC50 in experiment [1] is 10 to 50 nM; in experiment [2], under 10 nM. For the compound `CN1C(=O)[C@@H](NC(=O)n2cc(Cc3cccc(F)c3)cn2)COc2ccc(C(=O)N3CCC(C)(O)CC3)cc21` [Example 5, (S)-4-(3-fluorobenzyl)-N-(7-(4-hydroxy-4-methylpiperidine-1-carbonyl)-5-methyl-4-oxo-2,3,4,5-tetrahydrobenzo[b][1,4]oxazepin-3-yl)-1H-pyrazole-1-carboxamide], the IC50 in experiment [1] and in experiment [2] was under 10 nM each time.

In the case of `CN1C(=O)[C@@H](NC(=O)n2cc(Cc3cccc(F)c3)cn2)COc2ccc(C(=O)N3CCC(C(C)(C)O)CC3)cc21` [Example 6, (S)-4-(3-fluorobenzyl)-N-(7-(4-(2-hydroxypropan-2-yl)piperidine-1-carbonyl)-5-methyl-4-oxo-2,3,4,5-tetrahydrobenzo[b][1,4]oxazepin-3-yl)-1H-pyrazole-1-carboxamide], the IC50 in experiment [1] and in experiment [2] was under 10 nM in each case. As for `CN1CCN(C(=O)c2ccc3c(c2)N(C)C(=O)[C@@H](NC(=O)n2cc(Cc4cccc(F)c4)cn2)CO3)CC1` [Example 7, (S)-4-(3-fluorobenzyl)-N-(5-methyl-7-(4-methylpiperazine-1-carbonyl)-4-oxo-2,3,4,5-tetrahydrobenzo[b][1,4]oxazepin-3-yl)-1H-pyrazole-1-carboxamide], the IC50 in experiment [1] lay within 10 to 50 nM. With `CN1C(=O)[C@@H](NC(=O)n2cc(Cc3cccc(F)c3)cn2)COc2ccc(C(=O)N3CCNCC3)cc21` [Example 8, (S)-4-(3-fluorobenzyl)-N-(5-methyl-4-oxo-7-(piperazine-1-carbonyl)-2,3,4,5-tetrahydrobenzo[b][1,4]oxazepin-3-yl)-1H-pyrazole-1-carboxamide], the IC50 in experiment [1] is over 50 nM. On the same count and under the same terms, in the case of `CN1C(=O)[C@@H](NC(=O)n2cc(Cc3cccc(F)c3)cn2)COc2ccc(C(=O)N3CCOCC3)cc21` [Example 9, (S)-4-(3-fluorobenzyl)-N-(5-methyl-7-(morpholine-4-carbonyl)-4-oxo-2,3,4,5-tetrahydrobenzo[b][1,4]oxazepin-3-yl)-1H-pyrazole-1-carboxamide] it was 10 to 50 nM. On the same count and under the same terms, the result for `CN1C(=O)[C@@H](NC(=O)n2cc(Cc3cccc(F)c3)cn2)COc2ccc(C(=O)N3CCC(O)C3)cc21` (stereo partly drawn) [Example 10, 4-(3-fluorobenzyl)-N-((3S)-7-(3-hydroxypyrrolidine-1-carbonyl)-5-methyl-4-oxo-2,3,4,5-tetrahydrobenzo[b][1,4]oxazepin-3-yl)-1H-pyrazole-1-carboxamide] reads under 10 nM. As for `CN(Cc1ccncc1)C(=O)c1ccc2c(c1)N(C)C(=O)[C@@H](NC(=O)n1cc(Cc3cccc(F)c3)cn1)CO2` [Example 11], the IC50 in experiment [1] and in experiment [2] was under 10 nM in each case. As for `CN(C(=O)c1ccc2c(c1)N(C)C(=O)[C@@H](NC(=O)n1cc(Cc3cccc(F)c3)cn1)CO2)c1ccncc1` [Example 12, (S)-3-(4-(3-fluorobenzyl)-1H-pyrazole-1-carboxamido)-N,5-dimethyl-4-oxo-N-(pyridin-4-yl)-2,3,4,5-tetrahydrobenzo[b][1,4]oxazepine-7-carboxamide], the IC50 in experiment [1] and in experiment [2] was 10 to 50 nM each time. With `CN1C(=O)[C@@H](NC(=O)n2cc(Cc3cccc(F)c3)cn2)COc2ccc(C(=O)NOCC(C)(C)O)cc21` [Example 13, (S)-3-(4-(3-fluorobenzyl)-1H-pyrazole-1-carboxamido)-N-(2-hydroxy-2-methylpropoxy)-5-methyl-4-oxo-2,3,4,5-tetrahydrobenzo[b][1,4]oxazepine-7-carboxamide], the IC50 in experiment [1] lay in the range of 10 to 50 nM. With `CN1C(=O)[C@@H](NC(=O)n2cc(Cc3cccc(F)c3)cn2)COc2ccc(C(=O)N3CC4(COC4)C3)cc21` [Example 14, (S)-4-(3-fluorobenzyl)-N-(5-methyl-4-oxo-7-(2-oxa-6-azaspiro[3.3]heptane-6-carbonyl)-2,3,4,5-tetrahydrobenzo[b][1,4]oxazepin-3-yl)-1H-pyrazole-1-carboxamide], the IC50 in experiment [1] and in experiment [2] was 10 to 50 nM throughout.

As for `CN(C)CCOc1ccc2c(c1)N(C)C(=O)[C@@H](NC(=O)n1cc(Cc3cccc(F)c3)cn1)CO2` [Example 17, (S)—N-(7-(2-(dimethylamino)ethoxy)-5-methyl-4-oxo-2,3,4,5-tetrahydrobenzo[b][1,4]oxazepin-3-yl)-4-(3-fluorobenzyl)-1H-pyrazole-1-carboxamide], in experiment [1], the IC50 was 10 to 50 nM. `CN1C(=O)[C@@H](NC(=O)n2cc(Cc3cccc(F)c3)cn2)COc2ccc(O[C@@H]3CCOC3)cc21` [Example 32, 4-(3-fluorobenzyl)-N—((S)-5-methyl-4-oxo-7-(((R)-tetrahydrofuran-3-yl)oxy)-2,3,4,5-tetrahydrobenzo[b][1,4]oxazepin-3-yl)-1H-pyrazole-1-carboxamide]: the IC50 in experiment [1] is under 10 nM. For `CN1CC[C@@H](Oc2ccc3c(c2)N(C)C(=O)[C@@H](NC(=O)n2cc(Cc4cccc(F)c4)cn2)CO3)C1` [Example 33, 4-(3-fluorobenzyl)-N—((S)-5-methyl-7-(((R)-1-methylpyrrolidin-3-yl)oxy)-4-oxo-2,3,4,5-tetrahydrobenzo[b][1,4]oxazepin-3-yl)-1H-pyrazole-1-carboxamide], the IC50 in experiment [1] lay within 10 to 50 nM. For `CN1C(=O)[C@@H](NC(=O)n2cc(Cc3cccc(F)c3)cn2)COc2ccc(OCC(=O)NCC(C)(C)O)cc21` [Example 52, (S)-4-(3-fluorobenzyl)-N-(7-(2-((2-hydroxy-2-methylpropyl)amino)-2-oxoethoxy)-5-methyl-4-oxo-2,3,4,5-tetrahydrobenzo[b][1,4]oxazepin-3-yl)-1H-pyrazole-1-carboxamide], in experiment [1], the IC50 is under 10 nM.
